Measured values taken from article PMC8710297, “Identification of potent SENP1 inhibitors that inactivate SENP1/JAK2/STAT signaling pathway and overcome platinum drug resistance in ovarian cancer” (Clinical and Translational Medicine, 2021).

What was measured:
STAT3 [1] = assay: pSTAT3 levels in IGROV1 CR cells (immunoblotting); type: cell-based; settings: Homo sapiens, IGROV-1, 48 h, read-out: IC50 (pSTAT3 levels, Figure 3C)
Procedure: FIGURE 3 Identification of UAMMC9 from UA derivatives. (A) Synthesis of UA derivatives. Reagents and conditions: (i) Ac2O, DMAP, Pyridine, r.t.; (ii) Oxalyl chloride, CH2Cl2, r.t., overnight; (iii) amines, TEA, r.t., 0.5–4 h; (iv) NaOH a.q., MeOH/THF, r.t.; (v) amines, MeOH, reflux; (vi) K2CO3, DMF, 60°C. The detail of synthesis was included in supplemental materials. (B) UAMMC9 inhibits Sentrin‐specific protease 1 (SENP1) activity in cells. (C) IGROV1 CR cells treated with indicated UAMMC9 for 48 h. Cells were then harvested and lysates were resolved on sodium dodecyl sulphate‐polyacrylamide gel electrophoresis, followed by immunoblotting for indicated proteins. (D) Cellular thermal shift assay to examine the interaction of UAMMC9 with SENP1. IGROV1 CR cells were incubated with DMSO or UAMMC9 for 4 h before treatment as in Figure 2A. (E) In vitro thermal shift assay to analyze the interactions of UAMMC9 with purified GST‐SENP1(C603A). Stability of SENP1(C603A) was analyzed by using Western blot against SENP1 antibody. […]
Figue S2. […] (B) Quantification of SENP1 in h ib iti o n by UAMMC9 in vitro and in vivo shown in A and Figure 3B . […] SE N P 1 stability wa s analyzed by using We s t e r n blot aga inst SE NP 1 antibody.
(D) Quantification of no n‐denatured SENP1 frac ti on sh own in C. (E) Quantification of th e levels of pSTAT3 as shown in Fi g u e 3C. […]

STAT3 [2] = assay: IHC staining of pSTAT3 in xenograft tumor samples; type: in vivo, mice; settings: IGROV1 CR xenograft tumor samples
Procedure: Cell viability was measured by SRB assay. […] Data were represented as mean ± SD (n = 3). (B) Colony formation assay in cells treated as indicated. […] (D) Growth curves of xenograft tumors are shown in (C). Data are represented as means ± SEM, n = 6 mice/group. **p < 0.01. […] (F) IGROV1 CR xenograft tumor growth curve by indicated treatments. Data are represented as means ± SD, n = 6 tumors/group. **p < 0.01. (G) Immunohistochemistry (IHC) staining against pSTAT3 antibodies of tumor samples from four groups of mice (magnification, 200x) (Upper).
Immun ohistochemical (IHC) sta i n in g an d scor ing we r e performed as prev iou sl y described (2).
The qu anti ficatio n of immunohistochemical sta in ing wa s scored blindly at lea st by two independent obser vers. Antibodies used in IHC as say are: SENP1 (ab108981, Abcam, Cambridge, UK), JA K 2 , p‐STAT 3 (ab76315; Abcam), Bc l‐xL (2764S; Cell Signaling Technology) (#3776, Cell Signaling Technologies, Danvers, MA, USA).
11. Cellular thermal shift assay and in vitro thermal shift assay
Cellular thermal shift assay was as previously described (5). Briefly, cells were pretreated with MG132 (10 µM, 1 hour) then incubated wi th DMSO, Mc, UA or UAMMC9 (2 µM) for 4 hours. […]

- IC50 (STAT3 [1]): 0.388 µM
SMILES: C[C@H]1[C@H](C)CC[C@]2(C(=O)NCC(=O)N(C)CCO)CC[C@]3(C)C(=CC[C@@H]4[C@@]5(C)CC[C@H](O)C(C)(C)[C@@H]5CC[C@]43C)[C@H]12 [UAMMC9]
- activation of STAT3 in vivo (pSTAT3 IHC) (STAT3 [2]): inhibit the activation of STAT3
